# Patent US11261211B2, “19-NOR neuroactive steroids and methods of use thereof” (Sage Therapeutics, Inc., priority 2013, dated 2022)
# pEC50: −log10 of the molar value.
# Legend:
# [1] = molecular target: α4β3δ GABAA receptor (Homo sapiens (Human), UniProt P28472+P48169); experiment: Patch clamp electrophysiology of recombinant α4β3δ GABAA receptors in CHO cells; assay type: cell-based; settings: 10 μM compound, GABA EC20 2 μM; for activity at 10 µM: manual patch, read-out: α4β3δ GABA Manual Patch in CHO (Efficacy at 10 μM)
# Protocol: (§1) Cellular electrophysiology is used to measure the pharmacological properties of our GABAA receptor modulators in heterologous cell systems. Each compound is tested for its ability to affect GABA mediated currents at a submaximal agonist dose (GABA EC20=2 μM). LTK cells are stably transfected with the α1β2γ2 subunits of the GABA receptor and CHO cells are transiently transfected with the α4β3δ subunits via the Lipofecatamine method. Cells were passaged at a confluence of about 50-80% and then seeded onto 35 mm sterile culture dishes containing 2 ml culture complete medium without antibiotics or antimycotics. Confluent clusters of cells are electrically coupled (Pritchett et al., 1988). Because responses in distant cells are not adequately voltage clamped and because of uncertainties about the extent of coupling (Verdoorn et al., 1990), cells were cultivated at a density that enables the recording of single cells (without visible connections to other cells).
# (§2) Whole cell currents were measured with HEKA EPC-10 amplifiers using PatchMaster software or by using the high throughput QPatch platform (Sophion). Bath solution for all experiments contained (in mM): NaCl 137 mM, KCl 4 mM, CaCl2 1.8 mM, MgCl2 1 mM, HEPES 10 mM, D-Glucose 10 mM, pH (NaOH) 7.4. In some cases 0.005% cremophor was also added. Intracellular (pipette) solution contained: KCl 130 mM, MgCl2 1 mM, Mg-ATP 5 mM, HEPES 10 mM, EGTA 5 mM, pH 7.2. During experiments, cells and solutions were maintained at room temperature (19° C.-30° C.). For manual patch clamp recordings, cell culture dishes were placed on the dish holder of the microscope and continuously perfused (1 ml/min) with bath solution. After formation of a Gigaohm seal between the patch electrodes and the cell (pipette resistance range: 2.5 MΩ-6.0 MΩ; seal resistance range: >1 GΩ) the cell membrane across the pipette tip was ruptured to assure electrical access to the cell interior (whole-cell patch-configuration). For experiments using the QPatch system, cells were transferred as suspension to the QPatch system in the bath solution and automated whole cell recordings were performed.
# (§3) Cells were voltage clamped at a holding potential of −80 mV. For the analysis of test articles, GABA receptors were stimulated by 2 μM GABA after sequential pre-incubation of increasing concentrations of the test article. Pre-incubation duration was 30 s and the duration of the GABA stimulus was 2 s. Test articles were dissolved in DMSO to form stock solutions (10 mM). Test articles were diluted to 0.01, 0.1, 1, and 10 μM in bath solution. All concentrations of test articles were tested on each cell. The relative percentage potentiation was defined as the peak amplitude in response to GABA EC20 in the presence of the test article divided by the peak amplitude in response to GABA EC20 alone, multiplied by 100.
# [2] = molecular target: α1β2γ2 GABAA receptor (Homo sapiens (Human), UniProt P14867+P47870); experiment: Patch clamp electrophysiology of recombinant α1β2γ2 GABAA receptors in LTK cells; assay type: cell-based; settings: for activity at 10 µM / Emax: LTK; for activity at 10 µM / α1β2γ2 GABA Qpatch in Ltk (Efficacy at 10 μm): 10 μM compound, Qpatch, Ltk cells, GABA EC20 2 μM; for activity at 10 µM: read-out: α1β2γ2 GABA Qpatch in Ltk (Efficacy at 10 μm); for Emax / pEC50: potentiation of GABA EC20 (2 μM) current; for Emax: read-out: GABAa alpha1 (α1β2γ2) Emax (%); for pEC50: read-out: GABAa alpha1 (α1β2γ2)EC50
# Protocol: as §1, §2, §3
SMILES,activity at 10 µM [2] [%],also measured
C[C@@]1(O)CC[C@H]2[C@H](CC[C@@H]3[C@@H]2CC[C@]2(C)[C@@H](C(=O)Cn4nc5ccccc5n4)CC[C@@H]32)C1 [SA-2],100 to 500,activity at 10 µM [1]: > 500%; Emax [2]: 0 to 500%; pEC50 [2]: 6.00 to 6.30
C[C@@]1(O)CC[C@H]2[C@H](CC[C@@H]3[C@@H]2CC[C@]2(C)[C@@H](C(=O)Cn4cc5ncccc5n4)CC[C@@H]32)C1 [SA-4],,α4β3δ GABA Manual Patch in CHO (Efficacy at 10 μM) [1]: B (“B” indicates an efficacy value of >100-500%); α1β2γ2 GABA Qpatch in Ltk (Efficacy at 10 μm) [2]: C (“C” indicates an efficacy value of >500%); Emax [2]: 500 to 1000%; pEC50 [2]: 5.70 to 6.00
C[C@@]1(O)CC[C@H]2[C@H](CC[C@@H]3[C@@H]2CC[C@]2(C)[C@@H](C(=O)Cn4cc5ccccc5n4)CC[C@@H]32)C1 [SA-6],,α4β3δ GABA Manual Patch in CHO (Efficacy at 10 μM) [1]: B (“B” indicates an efficacy value of >100-500%); α1β2γ2 GABA Qpatch in Ltk (Efficacy at 10 μm) [2]: C (“C” indicates an efficacy value of >500%); Emax [2]: 500 to 1000%; pEC50 [2]: < 5.70
C[C@@]1(O)CC[C@H]2[C@H](CC[C@@H]3[C@@H]2CC[C@]2(C)[C@@H](C(=O)Cn4cc5c(n4)CCCC5)CC[C@@H]32)C1 [SA-7],,α4β3δ GABA Manual Patch in CHO (Efficacy at 10 μM) [1]: B (“B” indicates an efficacy value of >100-500%); α1β2γ2 GABA Qpatch in Ltk (Efficacy at 10 μm) [2]: B (“B” indicates an efficacy value of >100-500%)
C[C@@]1(O)CC[C@H]2[C@H](CC[C@@H]3[C@@H]2CC[C@]2(C)[C@@H](C(=O)Cn4nc5ccncc5n4)CC[C@@H]32)C1 [SA-11],> 500,activity at 10 µM [1]: 100 to 500%
C[C@@]1(O)CC[C@H]2[C@H](CC[C@@H]3[C@@H]2CC[C@]2(C)[C@@H](C(=O)Cn4nc5cccnc5n4)CC[C@@H]32)C1 [SA-14],> 500,activity at 10 µM [1]: 100 to 500%
C[C@@]1(O)CC[C@H]2[C@H](CC[C@@H]3[C@@H]2CC[C@]2(C)[C@@H](C(=O)Cn4cc5cc(F)ccc5n4)CC[C@@H]32)C1 [SA-16],> 500,activity at 10 µM [1]: 100 to 500%
C[C@@]1(O)CC[C@H]2[C@H](CC[C@@H]3[C@@H]2CC[C@]2(C)[C@@H](C(=O)Cn4cc5cccnc5n4)CC[C@@H]32)C1 [SA-18],,α4β3δ GABA Manual Patch in CHO (Efficacy at 10 μM) [1]: C (“C” indicates an efficacy value of >500%); α1β2γ2 GABA Qpatch in Ltk (Efficacy at 10 μm) [2]: C (“C” indicates an efficacy value of >500%); Emax [2]: 500 to 1000%; pEC50 [2]: < 5.70
C[C@@]1(O)CC[C@H]2[C@H](CC[C@@H]3[C@@H]2CC[C@]2(C)[C@@H](C(=O)Cn4cc5ccncc5n4)CC[C@@H]32)C1 [SA-20],,α4β3δ GABA Manual Patch in CHO (Efficacy at 10 μM) [1]: C (“C” indicates an efficacy value of >500%); α1β2γ2 GABA Qpatch in Ltk (Efficacy at 10 μm) [2]: C (“C” indicates an efficacy value of >500%)
C[C@@]1(O)CC[C@H]2[C@H](CC[C@@H]3[C@@H]2CC[C@]2(C)[C@@H](C(=O)Cn4cc5ccc(F)cc5n4)CC[C@@H]32)C1 [SA-22],> 500,activity at 10 µM [1]: 100 to 500%
Cc1cc2cn(CC(=O)[C@H]3CC[C@H]4[C@@H]5CC[C@@H]6C[C@](C)(O)CC[C@@H]6[C@H]5CC[C@]34C)nc2cn1 [SA-24],100 to 500,activity at 10 µM [1]: 100 to 500%
C[C@@]1(O)CC[C@H]2[C@H](CC[C@@H]3[C@@H]2CC[C@]2(C)[C@@H](C(=O)Cn4cc5ncc(Cl)cc5n4)CC[C@@H]32)C1 [SA-26],> 500,activity at 10 µM [1]: 100 to 500%
C[C@@]1(O)CC[C@H]2[C@H](CC[C@@H]3[C@@H]2CC[C@]2(C)[C@@H](C(=O)Cn4cc5nccnc5n4)CC[C@@H]32)C1 [SA-28],100 to 500,activity at 10 µM [1]: 100 to 500%
C[C@@]1(O)CC[C@H]2[C@H](CC[C@@H]3[C@@H]2CC[C@]2(C)[C@@H](C(=O)Cn4cc5cc(Cl)ncc5n4)CC[C@@H]32)C1 [SA-30],> 500,activity at 10 µM [1]: > 500%
COc1ccc2nn(CC(=O)[C@H]3CC[C@H]4[C@@H]5CC[C@@H]6C[C@](C)(O)CC[C@@H]6[C@H]5CC[C@]34C)nc2c1 [SA-49],,activity at 10 µM [1]: > 500%
C[C@@]1(O)CC[C@H]2[C@H](CC[C@@H]3[C@@H]2CC[C@]2(C)[C@@H](C(=O)Cn4nc5ccc(F)cc5n4)CC[C@@H]32)C1 [SA-63],,activity at 10 µM [1]: 100 to 500%
CC[C@@]1(O)CC[C@H]2[C@@H](CC[C@@H]3[C@@H]2CC[C@]2(C)[C@@H](C(=O)Cn4nc5ccccc5n4)CC[C@@H]32)C1 [SB-36],100 to 500,
CC[C@@]1(O)CC[C@H]2[C@@H](CC[C@@H]3[C@@H]2CC[C@]2(C)[C@@H](C(=O)Cn4nc5ccc(F)cc5n4)CC[C@@H]32)C1 [SB-39],10 to 100,
COC[C@@]1(O)CC[C@H]2[C@@H](CC[C@@H]3[C@@H]2CC[C@]2(C)[C@@H](C(=O)Cn4nc5ccc(F)cc5n4)CC[C@@H]32)C1 [SB-41],10 to 100,

SMILES,activity at 10 µM [2] [%],also measured
COC[C@@]1(O)CC[C@H]2[C@@H](CC[C@@H]3[C@@H]2CC[C@]2(C)[C@@H](C(=O)Cn4nnc5cnccc54)CC[C@@H]32)C1 [SB-43],100 to 500,
COC[C@@]1(O)CC[C@H]2[C@@H](CC[C@@H]3[C@@H]2CC[C@]2(C)[C@@H](C(=O)Cn4nc5ccncc5n4)CC[C@@H]32)C1 [SB-44],> 500,
COC[C@@]1(O)CC[C@H]2[C@@H](CC[C@@H]3[C@@H]2CC[C@]2(C)[C@@H](C(=O)Cn4ncc5ccncc54)CC[C@@H]32)C1 [SB-46],100 to 500,
COC[C@@]1(O)CC[C@H]2[C@@H](CC[C@@H]3[C@@H]2CC[C@]2(C)[C@@H](C(=O)Cn4cc5ncccc5n4)CC[C@@H]32)C1 [SB-47],> 500,
COC[C@@]1(O)CC[C@H]2[C@@H](CC[C@@H]3[C@@H]2CC[C@]2(C)[C@@H](C(=O)Cn4ncc5ncccc54)CC[C@@H]32)C1 [SB-48],> 500,
COC[C@@]1(O)CC[C@H]2[C@@H](CC[C@@H]3[C@@H]2CC[C@]2(C)[C@@H](C(=O)Cn4nnc5ccccc54)CC[C@@H]32)C1 [SB-49],100 to 500,
CCOC[C@@]1(O)CC[C@H]2[C@@H](CC[C@@H]3[C@@H]2CC[C@]2(C)[C@@H](C(=O)Cn4nnc5ccccc54)CC[C@@H]32)C1 [SB-52],100 to 500,
CCOC[C@@]1(O)CC[C@H]2[C@@H](CC[C@@H]3[C@@H]2CC[C@]2(C)[C@@H](C(=O)Cn4nc5ccccc5n4)CC[C@@H]32)C1 [SB-53],10 to 100,
CCOC[C@@]1(O)CC[C@H]2[C@@H](CC[C@@H]3[C@@H]2CC[C@]2(C)[C@@H](C(=O)Cn4ncc5ncccc54)CC[C@@H]32)C1 [SB-54],100 to 500,
CCOC[C@@]1(O)CC[C@H]2[C@@H](CC[C@@H]3[C@@H]2CC[C@]2(C)[C@@H](C(=O)Cn4cc5ncccc5n4)CC[C@@H]32)C1 [SB-55],10 to 100,
CCOC[C@@]1(O)CC[C@H]2[C@@H](CC[C@@H]3[C@@H]2CC[C@]2(C)[C@@H](C(=O)Cn4ncc5ccncc54)CC[C@@H]32)C1 [SB-56],10 to 100,
CCOC[C@@]1(O)CC[C@H]2[C@@H](CC[C@@H]3[C@@H]2CC[C@]2(C)[C@@H](C(=O)Cn4cc5ccncc5n4)CC[C@@H]32)C1 [SB-57],100 to 500,
CCOC[C@@]1(O)CC[C@H]2[C@@H](CC[C@@H]3[C@@H]2CC[C@]2(C)[C@@H](C(=O)Cn4nc5ccncc5n4)CC[C@@H]32)C1 [SB-59],100 to 500,
CCOC[C@@]1(O)CC[C@H]2[C@@H](CC[C@@H]3[C@@H]2CC[C@]2(C)[C@@H](C(=O)Cn4nc5ccc(F)cc5n4)CC[C@@H]32)C1 [SB-60],10 to 100,
COc1ccc2nn(CC(=O)[C@H]3CC[C@H]4[C@@H]5CC[C@H]6C[C@@](O)(CF)CC[C@@H]6[C@H]5CC[C@]34C)nc2c1 [SG-21],10 to 100,
COc1ccc2nnn(CC(=O)[C@H]3CC[C@H]4[C@@H]5CC[C@H]6C[C@@](O)(CF)CC[C@@H]6[C@H]5CC[C@]34C)c2c1 [SG-22],100 to 500,
COc1ccc2c(c1)nnn2CC(=O)[C@H]1CC[C@H]2[C@@H]3CC[C@H]4C[C@@](O)(CF)CC[C@@H]4[C@H]3CC[C@]12C [SG-23],10 to 100,
C[C@]12CC[C@H]3[C@@H](CC[C@H]4C[C@@](O)(CF)CC[C@@H]43)[C@@H]1CC[C@@H]2C(=O)Cn1nc2ccc(F)cc2n1 [SG-24],100 to 500,
